Data: patent US20030109035A1, “Method of forming vertebrate pancreas in vitro” (priority 2000, published 2003)

Assays:
insulin and XlHbox8 = test: RT-PCR expression of pancreas-specific genes in explants; format: cell-based, Xenopus laevis; details: treated with one agent alone, cultured three days
Excerpt: C., and the expression of insulin that is a pancreas-specific gene (Henry, G. L. et al.; Development 122, 1007-1015, 1996) and XlHbox8 (Lemaire, P. et al.; Development 125, 2371-2380, 1998) were examined by the method as previously described (Yokota, C. et al.; J. Biochem. 123, 339-346, 1998). […] EF-1α (elongation factor 1α) was used as a loading control. The combination of primers of each gene in PCR reaction that were used is as follows: insulin [insulin-[…] No. 1), insulin-[…] No. 2)], […] No. 3), […] No. 4)], […] No. 5), and […] No. 6)]. Seventy-six μl of DDW, 10 μl of 10×Ex buffer, 8 μl of 2.5 mM dNTPs mix, 0.5 μl of 5[…] 0.5 μl of 100 μM of each of the above-mentioned primers were added to 5 μl of the above-mentioned cDNA (20 ng/μl), and PCR reaction was conducted with the total amount of 100 μl. The thermal cycle program, which is a cycle to denature for four minutes at 94° C. only at the first time, followed by thermal denaturation for 30 seconds at 94° C., […], was repeated for 23 to 30 times. Ultimately, annealing was conducted for nine minutes at 72° C. […] As a negative control, EF-1α wherein RT-PCR was conducted under a condition where the reverse transcription factor had been eliminated was used.

whole embryos = test: Retinoic acid treatment of whole embryos from blastula to gastrula; format: in vivo, Xenopus
Excerpt: Moreover, there has been a report regarding the effect of retinoic acid to the endoderm of Xenopus embryo (Zeynali, B. and Dixon, K. E.; Dev. Genes. Evol. 208, 318-326, 1998). […] The present inventors conducted retinoic acid treatment to the whole embryos from the period of blastula to gastrula. […] However, the physical relationship of each of the endodermal organs was abnormal and the endodermal organs were formed aggregately in the anterior and posterior axis direction.

[1] = system: blastopore upper lip cell of Xenopus early gastrula; details: cited from earlier work
[2] = system: Xenopus embryos at developmental stage 22 to 32; details: cited from earlier work
[3] = system: pieces of presumptive ectoderm of Xenopus late blastula; test: Time lag treatment of pieces of presumptive ectoderm with activin then retinoic acid, tissues that differentiate; format: cell-based, Xenopus laevis; details: activin 100 ng/ml alone 1 h, 65 samples
Description: (§1) The dorsal lymph sacs of adult male and female Xenopus laevis were each injected with 600 IU of hCG (human chorionic gonadotropin; Gestron; Denka Seiyaku, Japan), and fertilized eggs were obtained by mating these Xenopuses. These late blastulas [developmental stage 9] were dejellied in Steinberg's solution (SS: 58.00 mM NaCl, 0.67 mM KCl, 0.34 mM Ca(NO3)2, 0.83 mM MgSO4, 3.00 mM HEPES and 100 mg/l kanamycin sulfate; pH 7.4) containing 4.5% cysteine hydrochloride (pH 7.8), and the vitelline membranes were removed in the Steinberg's solution by using a pair of watchmaker's tweezers. The presumptive ectoderm portion of Xenopus late blastula thus obtained was cut into a size of 0.4 mm×0.4 mm by using a tungsten needle.
A time lag was provided between the treatment with activin and treatment with retinoic acid, so that the action of retinoic acid can be received for the first time, after the differentiation to dorsal mesoderm/anterior endoderm had been determined by action of activin. […] After the elapse of the time lag, the pieces of presumptive ectoderm were left at rest in retinoic acid solution at 10^−4 M for one hour, washed two times with Steinberg's solution containing 0.1% BSA, and then cultured in Steinberg's solution containing 0.1% BSA at 20° C. for ten days (see time lag treatment in FIG. 1). These explants that had been cultured were stained in the same manner as described in Example 2, and the tissues that differentiated were observed and examined under a light microscope.

[4] = system: pieces of presumptive ectoderm of Xenopus late blastula; test: Simultaneous and continuous treatment of pieces of presumptive ectoderm with activin/retinoic acid, tissues that differentiate; format: cell-based, Xenopus laevis; details: continuous, activin 100 ng/ml, retinoic acid 0 M, 10 samples
Description: as §1
(§2) Human recombinant activin A (Ajinomoto Co., Inc.) was dissolved in Steinberg's solution containing 0.1% bovine serum albumin (BSA) to a concentration of 100 ng/ml, and an activin solution was prepared.
Based on the results from Example 2, since the effect of retinoic acid treatment was found in the differential pattern of mesodermal tissues, it can be considered that retinoic acid acted in the period when the fate of the mesoderm is determined to each mesodermal tissue (notochord, muscle, pronephric tubule and the like, for example). […] C. for 10 days (see continuous treatment in FIG. 1). These explants that had been cultured were stained in the same manner as in Example 2, and the tissues that differentiated were observed and examined by using a light microscope.

Xenopus animal cap cells = details: cited from earlier work
[5] = system: pieces of presumptive ectoderm of Xenopus late blastula; test: Simultaneous one-hour treatment of pieces of presumptive ectoderm with activin/retinoic acid, tissues that differentiate (light microscopy); format: cell-based, Xenopus laevis
Description: as §1, §2
C. (see temporary treatment in FIG. 1). These explants that had been cultured were fixed with Bouin's solution, followed by dehydration treatment of a series of ethanol and xylene, and these explants were embedded in paraffin and sliced into 6 μm sections. These sections were stained with hematoxylin and eosin, and the tissues that differentiated were observed and examined under a light microscope. Further, the untreated pieces of presumptive ectoderm were also observed and examined in the same manner by using a light microscope.

[6] = activin 100 ng/ml, retinoic acid 0 M, 1 h, 31 samples

For `CC1=C(/C=C/C(C)=C/C=C/C(C)=C/C(=O)O)C(C)(C)CCC1` [retinoic acid, All-trans retinoic acid], the “expression of insulin and XlHbox8” value (insulin and XlHbox8) was “expression of these genes was not found”, the “morphology of treated embryos” value (whole embryos) was “head-deficient embryos” and the “induction of pancreas in vivo” value (whole embryos; whole embryos treated from blastula to gastrula) was “pancreas was not induced specifically in vivo”. The pancreas formation [1] was “enables pancreas formation with high efficiency”, the “expression of XlHbox8” value [2] was “no effect is found in the expression of XlHbox8” and the formation of pancreas [2] was “formed normally”. For the same compound, the “morphology of the digestive organs” value [2] was “the morphology of the digestive organs such as intestines, liver and stomach become abnormal”.
In the case of “activin: Human recombinant activin A (Ajinomoto Co., Inc.)”, the “expression of insulin and XlHbox8” value (insulin and XlHbox8) is reported as “induced only a little”, the “Atypical epidermis differentiated in explants” value [3] is reported as 0(0) number (percentage) and the “Cartilage differentiated in explants” value [3] is reported as 12(18) number (percentage). For the same compound, the “Coelomic epithelium differentiated in explants” value [3] was 28(43) number (percentage), the “Epidermis differentiated in explants” value [3] was 59(91) number (percentage) and the “Intestinal epithelium differentiated in explants” value [3] was 3(5) number (percentage). For the same compound, the “Mesenchyme differentiated in explants” value [3] was 59(91) number (percentage), the “Muscle differentiated in explants” value [3] was 37(57) number (percentage) and the “Neural tissue differentiated in explants” value [3] was 32(49) number (percentage). The “Notochord differentiated in explants” value [3] was 34(52) number (percentage), the “Pancreas differentiated in explants” value [3] was 0(0) number (percentage) and the “Pharyngeal epithelium differentiated in explants” value [3] was 37(57) number (percentage). For the same compound, the “Pronephric tubule differentiated in explants” value [3] was 5(8) number (percentage), the “Yolk-rich cell differentiated in explants” value [3] was 29(45) number (percentage) and the “Atypical epidermis differentiated in explants” value [4] was 0(0) number (percentage). The “Cartilage differentiated in explants” value [4] was 1(10) number (percentage), the “Coelomic epithelium differentiated in explants” value [4] was 4(40) number (percentage) and the “Epidermis differentiated in explants” value [4] was 9(90) number (percentage). The “Intestinal epithelium differentiated in explants” value [4] was 0(0) number (percentage), the “Mesenchyme differentiated in explants” value [4] was 9(90) number (percentage) and the “Muscle differentiated in explants” value [4] was 10(100) number (percentage). For the same compound, the “Neural tissue differentiated in explants” value [4] was 10(100) number (percentage), the “Notochord differentiated in explants” value [4] was 3(30) number (percentage) and the “Pancreas differentiated in explants” value [4] was 0(0) number (percentage). For the same compound, the “Pharyngeal epithelium differentiated in explants” value [4] was 5(50) number (percentage), the “Pronephric tubule differentiated in explants” value [4] was 0(0) number (percentage) and the “Yolk-rich cell differentiated in explants” value [4] was 5(50) number (percentage). For the same compound, the “induction of mesodermal tissues” value (Xenopus animal cap cells) was “induces most mesodermal tissues such as notochord, muscle, mesenchyme and coelomic epithelium, dose-dependently”, the “Atypical epidermis differentiated in explants” value [5, 6] was 0(0) number (percentage) and the “Cartilage differentiated in explants” value [5, 6] was 5(16) number (percentage). For the same compound, the “Coelomic epithelium differentiated in explants” value [5, 6] was 15(48) number (percentage), the “Epidermis differentiated in explants” value [5, 6] was 30(97) number (percentage) and the “Intestinal epithelium differentiated in explants” value [5, 6] was 0(0) number (percentage). The “Mesenchyme differentiated in explants” value [5, 6] was 31(100) number (percentage), the “Muscle differentiated in explants” value [5, 6] was 25(81) number (percentage) and the “Neural tissue differentiated in explants” value [5, 6] was 12(39) number (percentage). The “Notochord differentiated in explants” value [5, 6] was 4(13) number (percentage), the “Pancreas differentiated in explants” value [5, 6] was 0(0) number (percentage) and the “Pharyngeal epithelium differentiated in explants” value [5, 6] was 12(39) number (percentage). The “Pronephric tubule differentiated in explants” value [5, 6] was 7(23) number (percentage), the “Yolk-rich cell differentiated in explants” value [5, 6] was 18(58) number (percentage) and the tissues that differentiated ([5]; treated only with activin (100 ng/ml)) was “dorsal mesodermal and anterior endodermal tissues such as notochord, muscle, pharyngeal epithelium and the like differentiated”.
